{
  "source": "patent US5166374A",
  "about": "“Bile acid derivatives, processes for the preparation thereof and pharmaceutical compositions containing them” (Giuliani S.p.A., priority 1989, dated 1992)",
  "key": {"[1]": {"test": "critical micellar concentration (CMC), detergency", "format": "physicochemical", "experimental": "-critical micellar concentration (CMC) or \"detergency\",\n(§1) were evaluated according to conventional methods. Critical micellar concentration.\ncomparison with UDCA, GUDCA and TUDCA"}, "[2]": {"test": "lipophilicity (K' from retention times on C18 HPLC)", "format": "physicochemical", "settings": "for rK' C-18 (relative values): Table III", "from_the_text": "K' = calculated from retention times (t) on C18 HPLC according to\nwhere to = time of unretained solvent, under the following"}, "solubility in water": {"test": "solubility in water", "format": "physicochemical", "settings": "for solubility: water"}, "acidity constant (pKa)": {"test": "acidity constant (pKa)", "format": "physicochemical", "experimental": "as §1"}, "[3]": {"test": "critical micellar pH (CMpH)", "format": "physicochemical", "experimental": "as §1"}, "[4]": {"test": "liver uptake, biliary secretion and metabolism after intravenous administration", "format": "in vivo"}, "[5]": {"test": "intestinal absorption, biliary recovery and metabolism after intraduodenal administration", "format": "in vivo"}, "[6]": {"test_system": "bile flow and biliary secretion", "test": "effect on bile flow and biliary lipid secretion when administered i.v. to rat", "format": "in vivo", "settings": "for SMAB (mean maximum biliary secretion) / SMFL (mean maximum biliary lipid secretion) / SMVo (mean maximum bile flow) / SMxol (mean maximum biliary lipid secretion): rat, i.v., Table II", "from_the_text": "Effect of 24-ISOP on bile flow and biliary\nSVo = mean maximum bile flow.\nSM = mean maximum biliary lipid secretion."}, "bile flow": {"test_system": "bile flow", "test": "choleretic effect after i.v. or i.d. administration", "format": "in vivo"}, "[7]": {"settings": "Table I, calculated from retention times on C18 HPLC, CH3OH/KH2PO4 0.01 M 130/70 v/v, pH = 7, read-out: K' (converted)"}},
  "note": "“Also recorded” adds a separate entry of the source. Read-outs that look alike come from different tables or passages of the source.",
  "data": [
    {"molecule": "C[C@H](CCC(=O)CCC(=O)O)[C@H]1CC[C@H]2[C@@H]3[C@@H](O)C[C@@H]4C[C@H](O)CC[C@]4(C)[C@H]3CC[C@]12C", "note": "[Example 24-ISOP, 3α, 7β-dihydroxy-24-oxo-5β-cholan-27-oic acid]", "values": [
      {"measurement": "CMC", "setting": "[1]; Table I", "result": 9, "unit": "mM"},
      {"measurement": "chromatographic logD", "setting": "[2]; c18 hplc, ch3oh/kh2po4, pH 7", "result": 0.326},
      {"measurement": "solubility", "setting": "solubility in water; Solubility", "result": 20, "unit": "µM"},
      {"measurement": "pKa", "setting": "acidity constant (pKa); pKa value", "result": 4.2},
      {"measurement": "critical micellar pH (in words)", "setting": "[3]", "result": "low critical micellar pH; also recorded: soluble when present in micellar form at a pH lower than UDCA (low CMpH)"},
      {"measurement": "disappearance from bile", "setting": "[4]; in vivo", "result": "disappears from bile with a kinetic similar to conjugate forms of UDCA and faster than UDCA"},
      {"measurement": "kinetic of the biliary secretion", "setting": "[4]; in vivo, iv", "result": "very fast in comparison with UDCA and more similar to tauroursodeoxycholic acid"},
      {"measurement": "metabolites / conjugation", "setting": "[4]; intravenous", "result": "no significant metabolites are present"},
      {"measurement": "recovery in bile", "setting": "[4]; intravenous", "result": "completely recovered in bile with a rapid kinetic"},
      {"measurement": "metabolites", "setting": "[5]; in vivo", "result": "no major metabolites are present"},
      {"measurement": "recovery in bile", "setting": "[5]; intraduodenal", "result": "significantly higher than that of glycoursodeoxycholic and similar to UDCA and TUDCA"},
      {"measurement": "effect on bile flow (in words)", "setting": "[6]; intravenous", "result": "great effect on bile flow, higher than that of UDCA and its conjugated forms"},
      {"measurement": "transport and secretion of cholesterol and phospholipids (in words)", "setting": "[6]; intravenous", "result": "no significative differences"},
      {"measurement": "SMAB (mean maximum biliary secretion)", "setting": "[6]", "result": 2.62, "unit": "µmol/min/kg"},
      {"measurement": "SMFL (mean maximum biliary lipid secretion)", "setting": "[6]", "result": 0.21, "unit": "µmol/min/kg"},
      {"measurement": "SMVo (mean maximum bile flow)", "setting": "[6]", "result": 5.22, "unit": "mL/h/kg"},
      {"measurement": "SMxol (mean maximum biliary lipid secretion)", "setting": "[6]", "result": 0.020, "unit": "µmol/min/kg"},
      {"measurement": "choleretic effect", "setting": "bile flow", "result": "high choleretic effect, higher than that of UDCA"}
    ]},
    {"molecule": "C[C@H](CCC(=O)CCC(=O)O)[C@H]1CC[C@H]2[C@@H]3[C@@H](O)C[C@@H]4C[C@H](O)CC[C@]4(C)[C@H]3C[C@H](O)[C@]12C", "note": "[Example 24-PUCA, 3α, 7β, 12α-Trihydroxy-24-oxo-5β-cholan-27-oic acid]", "values": [
      {"measurement": "CMC / detergency (in words)", "setting": "[1]", "result": "mild detergency"},
      {"measurement": "CMC", "setting": "[1]; Table III", "result": 28, "unit": "mM"},
      {"measurement": "lipophilicity (in words)", "setting": "[2]", "result": "intermediate between UCA and UDCA"},
      {"measurement": "rK' C-18 (relative values)", "setting": "[2]", "result": "0,20"},
      {"measurement": "solubility (in words)", "setting": "solubility in water", "result": "very soluble also in protonated form"},
      {"measurement": "water solubility relative to UDCA and 24-PUDCA", "setting": "solubility in water", "result": "about 100 times"},
      {"measurement": "solubility", "setting": "solubility in water; water solubility", "result": 1800, "unit": "µM"},
      {"measurement": "pKa (in words)", "setting": "acidity constant (pKa)", "result": "lower to than that of the natural analogues UCA and UDCA and similar to that of 24-PUDCA"},
      {"measurement": "pKa", "setting": "acidity constant (pKa); pKa", "result": 3.85},
      {"measurement": "critical micellar pH (in words)", "setting": "[3]", "result": "low CMpH value"}
    ]},
    {"molecule": "C[C@H](CCC(=O)NCCS(=O)(=O)O)[C@H]1CC[C@H]2[C@@H]3[C@@H](O)C[C@@H]4C[C@H](O)CC[C@]4(C)[C@H]3CC[C@]12C", "note": "[TUDCA, tauroursodeoxycholic acid]", "values": [
      {"measurement": "CMC", "setting": "[1]; Table I", "result": 8, "unit": "mM"},
      {"measurement": "chromatographic logD", "setting": "[2]; [7]", "result": -0.00877},
      {"measurement": "SMAB (mean maximum biliary secretion)", "setting": "[6]", "result": 3.40, "unit": "µmol/min/kg"},
      {"measurement": "SMFL (mean maximum biliary lipid secretion)", "setting": "[6]", "result": 0.18, "unit": "µmol/min/kg"},
      {"measurement": "SMVo (mean maximum bile flow)", "setting": "[6]", "result": 2.16, "unit": "mL/h/kg"},
      {"measurement": "SMxol (mean maximum biliary lipid secretion)", "setting": "[6]", "result": 0.014, "unit": "µmol/min/kg"}
    ]},
    {"molecule": "C[C@H](CCC(=O)CCC(=O)O)[C@H]1CC[C@H]2[C@@H]3[C@@H](O)C[C@@H]4C[C@H](O)CC[C@]4(C)[C@H]3CC[C@]12C", "note": "[Example 24-PUDCA]", "values": [
      {"measurement": "CMC", "setting": "[1]; Table III", "result": 9, "unit": "mM"},
      {"measurement": "rK' C-18 (relative values)", "setting": "[2]", "result": "0,44"},
      {"measurement": "solubility", "setting": "solubility in water; water solubility", "result": 13, "unit": "µM"},
      {"measurement": "pKa", "setting": "acidity constant (pKa); pKa", "result": 3.9}
    ]},
    {"molecule": "C[C@H](CCC(=O)O)[C@H]1CC[C@H]2[C@@H]3[C@@H](O)C[C@@H]4C[C@H](O)CC[C@]4(C)[C@H]3CC[C@]12C", "note": "[UDCA, ursodeoxycholic, reference compound]", "values": [
      {"measurement": "CMC", "setting": "[1]; Table I", "result": 19, "unit": "mM"},
      {"measurement": "CMC", "setting": "[1]; Table III", "result": 19, "unit": "mM"},
      {"measurement": "chromatographic logD", "setting": "[2]; [7]", "result": 0.563},
      {"measurement": "rK' C-18 (relative values)", "setting": "[2]", "result": "0,4"},
      {"measurement": "solubility (in words)", "setting": "solubility in water", "result": "low solubility at low pH"},
      {"measurement": "solubility", "setting": "solubility in water; Table III, read-out: water solubility", "result": 19, "unit": "µM"},
      {"measurement": "solubility", "setting": "solubility in water; Table I, read-out: Solubility", "result": 9, "unit": "µM"},
      {"measurement": "pKa", "setting": "acidity constant (pKa); Acidity constant, read-out: pKa value", "result": 6},
      {"measurement": "pKa", "setting": "acidity constant (pKa); Table I", "result": 5.06},
      {"measurement": "pKa", "setting": "acidity constant (pKa); Table III", "result": 5},
      {"measurement": "metabolites / conjugation", "setting": "[4]; in vivo, iv", "result": "completely transformed into its conjugated form, tauroursodexycholic acid and to less extent into glycoursodeoxycholic acid"},
      {"measurement": "SMAB (mean maximum biliary secretion)", "setting": "[6]", "result": 3.02, "unit": "µmol/min/kg"},
      {"measurement": "SMFL (mean maximum biliary lipid secretion)", "setting": "[6]", "result": 0.227, "unit": "µmol/min/kg"},
      {"measurement": "SMVo (mean maximum bile flow)", "setting": "[6]", "result": 3.6, "unit": "mL/h/kg"},
      {"measurement": "SMxol (mean maximum biliary lipid secretion)", "setting": "[6]", "result": 0.022, "unit": "µmol/min/kg"}
    ]},
    {"molecule": "C[C@H](CCC(=O)O)[C@H]1CC[C@H]2[C@@H]3[C@@H](O)C[C@@H]4C[C@H](O)CC[C@]4(C)[C@H]3C[C@H](O)[C@]12C", "note": "[UCA, ursocholic]", "values": [
      {"measurement": "CMC", "setting": "[1]; Table III", "result": 60, "unit": "mM"}
    ]},
    {"molecule": "C[C@H](CCC(=O)NCC(=O)O)[C@H]1CC[C@H]2[C@@H]3[C@@H](O)C[C@@H]4C[C@H](O)CC[C@]4(C)[C@H]3CC[C@]12C", "note": "[GUDCA, glycoursodeoxycholic acid]", "values": [
      {"measurement": "CMC", "setting": "[1]; Table I", "result": 12, "unit": "mM"},
      {"measurement": "chromatographic logD", "setting": "[2]; [7]", "result": 0.0253},
      {"measurement": "solubility (in words)", "setting": "solubility in water", "result": "low solubility at low pH"},
      {"measurement": "solubility", "setting": "solubility in water; Table I, read-out: Solubility", "result": 3, "unit": "µM"},
      {"measurement": "SMAB (mean maximum biliary secretion)", "setting": "[6]", "result": 2.10, "unit": "µmol/min/kg"},
      {"measurement": "SMFL (mean maximum biliary lipid secretion)", "setting": "[6]", "result": 0.39, "unit": "µmol/min/kg"},
      {"measurement": "SMVo (mean maximum bile flow)", "setting": "[6]", "result": 2.4, "unit": "mL/h/kg"},
      {"measurement": "SMxol (mean maximum biliary lipid secretion)", "setting": "[6]", "result": 0.028, "unit": "µmol/min/kg"}
    ]}
  ]
}
